We go through 20 compounds from patent publication US11981677B2, “Further substituted triazolo quinoxaline derivatives” (Grünenthal GmbH, priority 2018, dated 2024).

The test has as its target T1, Glucocorticoid Receptor (Homo sapiens, UniProt P04150).
T1 construct: expressed in transfected cells
T1 sequence (P04150 524-758 limits assumed): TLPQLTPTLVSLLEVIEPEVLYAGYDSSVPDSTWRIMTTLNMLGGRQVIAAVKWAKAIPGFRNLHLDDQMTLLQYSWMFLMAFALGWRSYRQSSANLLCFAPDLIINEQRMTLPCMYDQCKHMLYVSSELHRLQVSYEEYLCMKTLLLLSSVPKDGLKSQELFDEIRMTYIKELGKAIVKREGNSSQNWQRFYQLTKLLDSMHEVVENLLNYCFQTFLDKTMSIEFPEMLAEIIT
Put plainly: Agonistic mode of action on the glucocorticoid receptor (CHO-Gal4/GR luciferase reporter cell line). In kind it is cell-based. Conditions: CHO-Gal4/GR luciferase reporter cells; observed in the agonistic assay or the antagonistic assay (mode not given); read-out: IC50 or EC50 range. An excerpt: Potential selective glucocorticoid receptor modulators of this intervention can be tested for modulation of the activity of the glucocorticoid receptor using cell-based assays. These assays involve a Chinese hamster ovary (CHO) cell line which contains fragments of the glucocorticoid receptor as well as fusion proteins. The glucocorticoid receptor fragments used are capable of binding the ligand (e.g. beclomethasone) to identify molecules that compete for binding with glucocorticoid receptor ligands. In more detail, the glucocorticoid receptor ligand binding domain is fused to the DNA binding domain (DBD) of the transcriptionfactor GAL4 (GAL4 DBD-GR) and is stably integrated into a CHO cell line containing a GAL4-UAS-Luciferase reporter construct. […] After cell lysis the luminescence that is produced by luciferase after addition of the substrate is detected and EC50 or IC50 values can be calculated. Engagement of molecules which induce gene expression via glucocortocoid receptor binding to the DNA leads to expression of the luciferase gene under the control of the fusion protein GAL4 DBD-GR and therefore to a dose-dependent increase of the luminescence signal. Binding of molecules which repress beclomethasone-induced gene expression of the luciferase gene under the control of the fusion protein GAL4 DBD-GR leads to a dose-dependent reduction of the luminescence signal.
The reporter cell line CHO-Gal4/GR consisted of a chinese hamster ovary (CHO) cell line (Leibniz Institute DSMZ—German Collection of Microorganisms and Cell Cultures GmbH: ACC-110) containing a firefly luciferase gene under the control of the GR ligand binding domain fused to the DNA binding domain (DBD) of GAL4 (GAL4 DBD-GR) stably integrated into CHO cells. This cell line was established by stable transfection of CHO cells with a GAL4-UAS-Luciferase reporter construct. In a subsequent step the ligand binding domain of the GR cloned into pIRES2-EGFP-GAL4 containing the DNA binding domain of GAL4 from pFA-AT2 was transfected. This fusion construct activated firefly luciferase expression under the control of a multimerized GAL4 upstream activation sequence (UAS). The signal of the emitted luminescence was recorded by the FLIPR^TETRA. This allowed for specific detection of ligand-induced activation of the GR and therefore for the identification of compounds with agonistic properties. The GAL4/UAS reporter was premixed with a vector that constitutively expressed Renilla luciferase, which served as an internal positive control for transfection efficiency.
The complete culture medium for the assay was: • DMEM F-12 (1:1) MIXTURE (LONZA cat. No: BE04-687F/U1) 500 mL • 5 mL of 100 mM Sodium Pyruvate (LONZA cat. No: BE12-115E) • 25 mL of 7.5% Sodium Bicarbonate (LONZA cat. No BE17-613E) • 6.5 mL of 1 M Hepes (LONZA cat. No: BE17-737E) • 5 mL of 100× Penicillin/Streptomycin (LONZA cat. No DE17-602E) • 50 mL of Fetal Bovine Serum (Euroclone cat. No ECS 0180L) • 0.25 mL of 10 mg/mL Puromycin (InvivoGen cat.: ant-pr-1) • 0.5 mL of 100 mg/mL Zeocin (InvivoGen cat.: ant-zn-1)
Cryo-preserved CHO-Gal4/GR cells were suspended in complete medium and 5000 cells/25 μl/well were seeded into the wells of 384-well polystyrene assay plates (Thermo Scientific, cat. #4332) and cultured at 37° C., 5% CO2 and 95% humidity. After 24 hours growth medium was carefully removed and replaced by 30111 Opti-MEM (GIBCO, cat. #31985062) as assay buffer. To test the compounds an 8-point half-log compound dilution curve was generated in 100% DMSO starting from a 2 mM stock and compounds were then diluted 1:50 in Opti-MEM. 10111 of compounds were then added to the wells containing 30 μl Opti-MEM resulting in a final assay concentration range from 10 μM to 0.003 μM in 0.5% DMSO. Compounds were tested at 8 concentrations in quadruplicate data points. […] Finally, cells were lysed with 20 μl of Triton/Luciferin solution and the signal of the emitted luminescence was recorded at the FLIPR^TETRA for 2 minutes. […]
For `Cc1c(-c2cc(C#N)cc3[nH]ccc23)cc(F)c2c1-n1c(C)nnc1C(C)(C)N2` [Example 477, 4-(6-Fluoro-1,4,4,9-tetramethyl-5H-[1,2,4]triazolo[4,3-a]quinoxalin-8-yl)-1H-indole-6-carbonitrile], the IC50 or EC50 (antagonist or agonist mode, not stated per compound) fell in the range of 100 to 1000 nM.

In the case of `COc1c(-c2cc(C)cc3c2ccn3S(C)(=O)=O)cc(F)c2c1-n1c(C)nnc1C(C)(C)N2` [Example 476, 6-Fluoro-9-methoxy-1,4,4-trimethyl-8-(6-methyl-1-methylsulfonyl-1H-indol-4-yl)-5H-[1,2,4]triazolo[4,3-a]quinoxaline], the IC50 or EC50 (antagonist or agonist mode, not stated per compound) was 100 to 1000 nM.

Take `COc1c(-c2cccc3[nH]ccc23)cc(F)c2c1-n1c(C)nnc1C(C)(C)N2` [Example 469, 6-Fluoro-8-(1H-indol-4-yl)-9-methoxy-1,4,4-trimethyl-5H-[1,2,4]triazolo[4,3-a]quinoxaline]: the IC50 or EC50 (antagonist or agonist mode, not stated per compound) lay within 100 to 1000 nM.

In the case of `COc1c(-c2cc(F)cc3c2ccn3S(C)(=O)=O)cc(Cl)c2c1-n1c(C)nnc1C(C)(C)N2` [Example 483, 6-chloro-8-(6-fluoro-1-(methylsulfonyl)-1H-indol-4-yl)-9-methoxy-1,4,4-trimethyl-4,5-dihydro-[1,2,4]triazolo[4,3-a]quinoxaline], the IC50 or EC50 (antagonist or agonist mode, not stated per compound) is under 100 nM.

Turning to `CCc1c(-c2cccc3c2ccn3S(C)(=O)=O)cc(F)c2c1-n1c(C)nnc1C(C)(C)N2` [Example 49, 9-ethyl-6-fluoro-1,4,4-trimethyl-8-(1-(methylsulfonyl)-1H-indol-4-yl)-4,5-dihydro-[1,2,4]triazolo[4,3-a]quinoxaline], the IC50 or EC50 (antagonist or agonist mode, not stated per compound) was 100 to 1000 nM.

Regarding `Cc1c(-c2ccc(F)c3[nH]ccc23)cc(F)c2c1-n1c(C)nnc1C(C)(C)N2` [Example 490, 6-fluoro-8-(7-fluoro-1H-indol-4-yl)-1,4,4,9-tetramethyl-4,5-dihydro-[1,2,4]triazolo[4,3-a]quinoxaline], the IC50 or EC50 (antagonist or agonist mode, not stated per compound) is 100 to 1000 nM.

As for `COc1c(-c2cc(F)cc3c2ccn3CC(F)F)cc(F)c2c1-n1c(C)nnc1C(C)(C)N2` [Example 58, 8-(1-(2,2-difluoroethyl)-6-fluoro-1H-indol-4-yl)-6-fluoro-9-methoxy-1,4,4-trimethyl-4,5-dihydro-[1,2,4]triazolo[4,3-a]quinoxaline], the IC50 or EC50 (antagonist or agonist mode, not stated per compound) was 100 to 1000 nM.

Take `Cc1nnc2n1-c1c(C#N)c(-c3cccc4c3ccn4C3CC3)cc(F)c1NC2(C)C` [Example 450, 8-(1-cyclopropyl-1H-indol-4-yl)-6-fluoro-1,4,4-trimethyl-4,5-dihydro-[1,2,4]triazolo[4,3-a]quinoxaline-9-carbonitrile]: the IC50 or EC50 (antagonist or agonist mode, not stated per compound) was under 100 nM.

For the compound `Cc1c(-c2cc(F)cc3c2ccn3CCO)c(F)c(F)c2c1-n1c(C)nnc1C(C)(C)N2` [Example 449, 2-[4-(6,7-Difluoro-1,4,4,9-tetramethyl-5H-[1,2,4]triazolo[4,3-a]quinoxalin-8-yl)-6-fluoro-1H-indol-1-yl]-EtOH], the IC50 or EC50 (antagonist or agonist mode, not stated per compound) lay in the range of 100 to 1000 nM.

In the case of `Cc1c(-c2cc(F)cc3c2ccn3S(C)(=O)=O)cc(Cl)c2c1-n1c(C)nnc1C(C)(C)N2` [Example 457, 6-Chloro-8-(6-fluoro-1-methylsulfonyl-1H-indol-4-yl)-1,4,4,9-tetramethyl-5H-[1,2,4]triazolo[4,3-a]quinoxaline], the IC50 or EC50 (antagonist or agonist mode, not stated per compound) was under 100 nM.

Consider `COc1c(-c2cc(F)cc3c2cnn3S(C)(=O)=O)cc(Cl)c2c1-n1c(C)nnc1C(C)(C)N2` [Example 493, 6-Chloro-8-(6-fluoro-1-methylsulfonyl-1H-indazol-4-yl)-9-methoxy-1,4,4-trimethyl-5H-[1,2,4]triazolo[4,3-a]quinoxaline], for which the IC50 or EC50 (antagonist or agonist mode, not stated per compound) lay within 100 to 1000 nM.

For `COc1cc(-c2cc(F)c3c(c2C)-n2c(C)nnc2C(C)(C)N3)c2ccn(S(C)(=O)=O)c2c1` [Example 523, 6-Fluoro-8-(6-methoxy-1-methylsulfonyl-1H-indol-4-yl)-1,4,4,9-tetramethyl-5H-[1,2,4]triazolo[4,3-a]quinoxaline], the IC50 or EC50 (antagonist or agonist mode, not stated per compound) was 100 to 1000 nM.

For the compound `COc1c(-c2cc(F)cc3c2cnn3S(C)(=O)=O)c(F)c(F)c2c1-n1c(C)nnc1C(C)(C)N2` [Example 501, 6,7-Difluoro-8-(6-fluoro-1-methylsulfonyl-1H-indazol-4-yl)-9-methoxy-1,4,4-trimethyl-5H-[1,2,4]triazolo[4,3-a]quinoxaline], the IC50 or EC50 (antagonist or agonist mode, not stated per compound) was in the range of 100 to 1000 nM.

For `Cc1c(-c2cc(F)cc3[nH]ncc23)cc(F)c2c1-n1c(C)nnc1C(C)(C)N2` [Example 496, 6-Fluoro-8-(6-fluoro-1H-indazol-4-yl)-1,4,4,9-tetramethyl-5H-[1,2,4]triazolo[4,3-a]quinoxaline], the IC50 or EC50 (antagonist or agonist mode, not stated per compound) lay in the range of 100 to 1000 nM.

For `COc1c(-c2ccc(F)c3[nH]ccc23)cc(F)c2c1-n1c(C)nnc1C(C)(C)N2` [Example 494, 6-Fluoro-8-(7-fluoro-1H-indol-4-yl)-9-methoxy-1,4,4-trimethyl-5H-[1,2,4]triazolo[4,3-a]quinoxaline], the IC50 or EC50 (antagonist or agonist mode, not stated per compound) was in the range of 100 to 1000 nM.

Turning to `CCc1c(-c2cc(F)cc3c2ccn3S(C)(=O)=O)cc(F)c2c1-n1c(C)nnc1C(C)(C)N2` [Example 48, 9-Ethyl-6-fluoro-8-(6-fluoro-1-methylsulfonyl-1H-indol-4-yl)-1,4,4-trimethyl-5H-[1,2,4]triazolo[4,3-a]quinoxaline], the IC50 or EC50 (antagonist or agonist mode, not stated per compound) is under 100 nM.

Turning to `CCS(=O)(=O)n1ccc2c(-c3cc(F)c4c(c3C(F)F)-n3c(C)nnc3C(C)(C)N4)cccc21` [Example 461, 9-(Difluoro-methyl)-8-[1-(ethylsulfonyl)-1H-indol-4-yl]-6-fluoro-1,4,4-trimethyl-5H-[1,2,4]triazolo[4,3-a]quinoxaline], the IC50 or EC50 (antagonist or agonist mode, not stated per compound) lay within 100 to 1000 nM.

As for `Cc1nnc2n1-c1c(c(F)cc(-c3cc(F)cc4c3ccn4S(C)(=O)=O)c1C1CC1)NC2(C)C` [Example 471, 9-Cyclopropyl-6-fluoro-8-(6-fluoro-1-methylsulfonyl-1H-indol-4-yl)-1,4,4-trimethyl-5H-[1,2,4]triazolo[4,3-a]quinoxaline], the IC50 or EC50 (antagonist or agonist mode, not stated per compound) is under 100 nM.

As for `Cc1c(-c2cc(F)cc3c(C)c[nH]c23)c(F)c(F)c2c1-n1c(C)nnc1C(C)(C)N2` [Example 514, 6,7-Difluoro-8-(5-fluoro-3-methyl-1H-indol-7-yl)-1,4,4,9-tetramethyl-5H-[1,2,4]triazolo[4,3-a]quinoxaline], the IC50 or EC50 (antagonist or agonist mode, not stated per compound) is under 100 nM.

As for `COc1c(-c2cccc3c2ccn3C2CC2)cc(F)c2c1-n1c(C)nnc1C(C)(C)N2` [Example 511, 8-(1-Cyclopropyl-1H-indol-4-yl)-6-fluoro-9-methoxy-1,4,4-trimethyl-5H-[1,2,4]triazolo[4,3-a]quinoxaline], the IC50 or EC50 (antagonist or agonist mode, not stated per compound) lay within 100 to 1000 nM.
